PMC11855827, “High-Throughput Screening of Five Compound Libraries for Anthelmintic Activity and Toxicity Leads to the Discovery of Two Flavonoid Compounds” (International Journal of Molecular Sciences, 2025)
Where two headings read alike, the source gives them in different places.

Test system: C. elegans
Assay: microbe, parasite or virus in culture
Conditions: Caenorhabditis elegans
[1] = 0 h, read-out: Percentage of motility inhibition 0 h
[2] = 24 h, read-out: Percentage of motility inhibition 24 h
[3] = 0 h, read-out: Percentage of motility inhibition 0 h, Table S2, C. elegans SS assay, 110 μM, 0 h, averages of 4 data points
[4] = 24 h, read-out: Percentage of motility inhibition 24 h, Table S2, C. elegans SS assay, 110 μM, 24 h, averages of 4 data points

COc1cc(CNC(=O)CCCC/C=C/C(C)C)ccc1O [Capsaicin]
inhibition at 110 µM [1]: 0%
inhibition at 110 µM [2]: 0%

COC(=O)N/N=C/c1c[n+]([O-])c2ccccc2[n+]1[O-] [Carbadox]
inhibition at 110 µM [3]: 4%
inhibition at 110 µM [4]: 0%

COC(=O)Nc1nc2ccccc2[nH]1 [Carbendazim]
inhibition at 110 µM [3]: 18%
inhibition at 110 µM [4]: 7%

O[C@H]1[C@H](O)[C@@H](O)CN2CC[C@H](O)[C@H]12 [Castanospermine]
inhibition at 110 µM [3]: 0%
inhibition at 110 µM [4]: 0%

COc1ccc(-c2oc3cc(OC)c(OC)c(O)c3c(=O)c2OC)cc1O [Casticin]
inhibition at 110 µM [1]: 9%
inhibition at 110 µM [2]: 0%

OC[C@H]1O[C@@H](O[C@@H]2OC=C[C@H]3[C@H](O)[C@@H]4O[C@]4(CO)[C@@H]23)[C@H](O)[C@@H](O)[C@@H]1O [Catalpol]
inhibition at 110 µM [3]: 0%
inhibition at 110 µM [4]: 16%

C[C@@H]1O[C@@H](O[C@H]2[C@H](O)[C@@H](O)[C@H](OC[C@H]3O[C@@H](OC(=O)[C@]45CCC(C)(C)C[C@H]4C4=CC[C@@H]6[C@@]7(C)CC[C@H](O[C@@H]8OC[C@H](O)[C@H](O)[C@H]8O)[C@@](C)(CO)[C@@H]7CC[C@@]6(C)[C@]4(C)CC5)[C@H](O)[C@@H](O)[C@@H]3O)O[C@@H]2CO)[C@H](O)[C@H](O)[C@H]1O [Cauloside D]
inhibition at 110 µM [3]: 6%
inhibition at 110 µM [4]: 17%

C[C@@H]1CC[C@H]2C(C)(C)[C@H]3C[C@@]12CC[C@@]3(C)O [Cedrol]
inhibition at 110 µM [3]: 8%
inhibition at 110 µM [4]: 13%

C=CC1=C(C(=O)O)N2C(=O)[C@@H](NC(=O)/C(=N\O)c3csc(N)n3)[C@H]2SC1 [Cefdinir]
inhibition at 110 µM [3]: 0%
inhibition at 110 µM [4]: 0%

C=CC1=C(C(=O)O)N2C(=O)[C@@H](NC(=O)/C(=N\OCC(=O)O)c3csc(N)n3)[C@H]2SC1 [Cefixime]
inhibition at 110 µM [3]: 38%
inhibition at 110 µM [4]: 12%

CCN1CCN(C(=O)N[C@@H](C(=O)N[C@@H]2C(=O)N3C(C(=O)O)=C(CSc4nnnn4C)CS[C@H]23)c2ccc(O)cc2)C(=O)C1=O [Cefoperazone]
inhibition at 110 µM [3]: 22%
inhibition at 110 µM [4]: 7%

CC1=C(C(=O)O)N2C(=O)[C@@H](NC(=O)[C@H](N)C3=CCC=CC3)[C@H]2SC1 [Cefradine]
inhibition at 110 µM [3]: 37%
inhibition at 110 µM [4]: 11%

CC(C)(O/N=C(\C(=O)N[C@@H]1C(=O)N2C(C(=O)[O-])=C(C[n+]3ccccc3)CS[C@H]12)c1csc(N)n1)C(=O)O [Ceftazidime]
inhibition at 110 µM [3]: 37%
inhibition at 110 µM [4]: 28%

CC1=C(O)C(=O)C=C2C1=CC=C1[C@@]2(C)CC[C@@]2(C)[C@@H]3C[C@](C)(C(=O)O)CC[C@]3(C)CC[C@]12C [Celastrol]
inhibition at 110 µM [3]: 0%
inhibition at 110 µM [4]: 13%

CC1=C(C(=O)O)N2C(=O)[C@@H](NC(=O)[C@H](N)c3ccccc3)[C@H]2SC1 [Cephalexin]
inhibition at 110 µM [3]: 21%
inhibition at 110 µM [4]: 13%

C/C=C(\C)C(=O)N[C@@H](c1ccccc1)[C@@H](O)C(=O)O[C@H]1C[C@@]2(O)[C@@H](OC(=O)c3ccccc3)[C@@H]3[C@]4(OC(C)=O)CO[C@@H]4C[C@H](O)[C@@]3(C)C(=O)[C@H](OC(C)=O)C(=C1C)C2(C)C [Cephalomannine]
inhibition at 110 µM [3]: 31%
inhibition at 110 µM [4]: 34%

COC1=C[C@]23CCCN2CCc2cc4c(cc2[C@@H]3[C@@H]1O)OCO4 [Cephalotaxine]
inhibition at 110 µM [3]: 0%
inhibition at 110 µM [4]: 0%

CN1Cc2c(ccc3c2OCO3)[C@@H]2[C@H]1c1cc3c(cc1C[C@@H]2O)OCO3 [Chelidonine]
inhibition at 110 µM [3]: 0%
inhibition at 110 µM [4]: 0%

C[C@H](CCC(=O)O)[C@H]1CC[C@H]2[C@@H]3[C@H](O)C[C@@H]4C[C@H](O)CC[C@]4(C)[C@H]3CC[C@]12C [Chenodeoxycholic Acid]
inhibition at 110 µM [3]: 0%
inhibition at 110 µM [4]: 5%

CC1(C)CC[C@]2(C(=O)O[C@@H]3O[C@H](CO)[C@@H](O)[C@H](O)[C@H]3O)CC[C@]3(C)C(=CC[C@@H]4[C@@]5(C)CC[C@H](O[C@@H]6O[C@H](C(=O)O)[C@@H](O)[C@H](O)[C@H]6O)C(C)(C)[C@@H]5CC[C@]43C)[C@@H]2C1 [Chikusetsusaponin Iva]
inhibition at 110 µM [3]: 5%
inhibition at 110 µM [4]: 14%

O=C(N[C@H](CO)[C@H](O)c1ccc([N+](=O)[O-])cc1)C(Cl)Cl [Chloramphenicol]
inhibition at 110 µM [3]: 6%
inhibition at 110 µM [4]: 2%

[H]/N=C(\N/C(=N/[H])NCCCCCCNC(=N)NC(=N)Nc1ccc(Cl)cc1)Nc1ccc(Cl)cc1 [Chlorhexidine]
inhibition at 110 µM [3]: 38%
inhibition at 110 µM [4]: 63%

Oc1c(Cl)cc(Cl)c2cccnc12 [Chloroxine]
inhibition at 110 µM [3]: 43%
inhibition at 110 µM [4]: 34%

Cc1ccc2c(Cl)cc(Cl)c(O)c2n1 [Chlorquinaldol]
inhibition at 110 µM [3]: 19%
inhibition at 110 µM [4]: 38%

CC(C)CCC[C@@H](C)[C@H]1CC[C@H]2[C@@H]3CC=C4C[C@@H](O)CC[C@]4(C)[C@H]3CC[C@]12C [Cholesterol]
inhibition at 110 µM [3]: 24%
inhibition at 110 µM [4]: 17%

C[C@H](CCC(=O)O)[C@H]1CC[C@H]2[C@@H]3[C@H](O)C[C@@H]4C[C@H](O)CC[C@]4(C)[C@H]3C[C@H](O)[C@]12C [Cholic acid]
inhibition at 110 µM [1]: 0%
inhibition at 110 µM [2]: 8%

O=c1cc(-c2ccccc2)oc2cc(O)cc(O)c12 [Chrysin]
inhibition at 110 µM [3]: 15%
inhibition at 110 µM [4]: 0%

COc1cc(-c2cc(=O)c3c(O)cc(O)cc3o2)ccc1O [Chrysoeriol]
inhibition at 110 µM [3]: 18%
inhibition at 110 µM [4]: 1%

Cc1cc(C2CCCCC2)n(O)c(=O)c1 [Ciclopirox]
inhibition at 110 µM [3]: 42%
inhibition at 110 µM [4]: 41%

Nc1ccn(C[C@@H](CO)OCP(=O)(O)O)c(=O)n1 [Cidofovir]
inhibition at 110 µM [3]: 15%
inhibition at 110 µM [4]: 3%

C=C[C@H]1CN2CC[C@H]1C[C@H]2[C@H](O)c1ccnc2ccccc12 [Cinchonidine]
inhibition at 110 µM [3]: 0%
inhibition at 110 µM [4]: 0%

C=C[C@H]1C[N@@]2CC[C@H]1C[C@@H]2[C@@H](O)c1ccnc2ccccc12 [Cinchonine]
inhibition at 110 µM [3]: 6%
inhibition at 110 µM [4]: 0%

O=C(O)c1cn(C2CC2)c2cc(N3CCNCC3)c(F)cc2c1=O [Ciprofloxacin]
inhibition at 110 µM [3]: 33%
inhibition at 110 µM [4]: 2%

C[N+](C)(C)CCOP(=O)(O)OP(=O)([O-])OC[C@H]1O[C@@H](n2ccc(N)nc2=O)[C@H](O)[C@@H]1O [Citicoline]
inhibition at 110 µM [3]: 0%
inhibition at 110 µM [4]: 0%

O=C(O)CC(O)(CC(=O)O)C(=O)O [Citric acid]
inhibition at 110 µM [3]: 0%
inhibition at 110 µM [4]: 18%

CC(C)=CCCC(C)CCO (stereo not drawn) [Citronellol]
inhibition at 110 µM [3]: 15%
inhibition at 110 µM [4]: 28%

CC[C@H]1OC(=O)[C@H](C)[C@@H](O[C@H]2C[C@@](C)(OC)[C@@H](O)[C@H](C)O2)[C@H](C)[C@@H](O[C@@H]2O[C@H](C)C[C@H](N(C)C)[C@H]2O)[C@](C)(OC)C[C@@H](C)C(=O)[C@H](C)[C@@H](O)[C@]1(C)O [Clarithromycin]
inhibition at 110 µM [3]: 12%
inhibition at 110 µM [4]: 10%

Cc1cn([C@H]2O[C@@H](CO)[C@H](O)[C@H]2F)c(=O)[nH]c1=O [Clevudine]
inhibition at 110 µM [3]: 2%
inhibition at 110 µM [4]: 0%

CC(C)(C)C(=O)C(Oc1ccc(Cl)cc1)n1ccnc1 (stereo not drawn) [Climbazole]
inhibition at 110 µM [3]: 53%
inhibition at 110 µM [4]: 2%

Oc1c(I)cc(Cl)c2cccnc12 [Clioquinol]
inhibition at 110 µM [3]: 23%
inhibition at 110 µM [4]: 0%

CC(C)/N=c1\cc2n(-c3ccc(Cl)cc3)c3ccccc3nc-2cc1Nc1ccc(Cl)cc1 [Clofazimine]
inhibition at 110 µM [3]: 6%
inhibition at 110 µM [4]: 7%

CC(C)(C)CC(C)(C)c1ccc(O)c(Cc2ccc(Cl)cc2Cl)c1 [Clofoctol]
inhibition at 110 µM [3]: 37%
inhibition at 110 µM [4]: 44%

Cc1nc(C)c(Cl)c(O)c1Cl [Clopidol]
inhibition at 110 µM [3]: 7%
inhibition at 110 µM [4]: 11%

Nc1cc(C(Cl)=C(Cl)Cl)c(S(N)(=O)=O)cc1S(N)(=O)=O [Clorsulon]
inhibition at 110 µM [3]: 12%
inhibition at 110 µM [4]: 5%

Cc1cc(C(C#N)c2ccc(Cl)cc2)c(Cl)cc1NC(=O)c1cc(I)cc(I)c1O (stereo not drawn) [Closantel]
inhibition at 110 µM [3]: 4%
inhibition at 110 µM [4]: 48%

Clc1ccccc1C(c1ccccc1)(c1ccccc1)n1ccnc1 [Clotrimazole]
inhibition at 110 µM [3]: 6%
inhibition at 110 µM [4]: 0%

Oc1ccc(Cl)c2cccnc12 [Cloxiquine]
inhibition at 110 µM [3]: 40%
inhibition at 110 µM [4]: 19%

COc1cc2c(c(OC)c1OC)-c1ccc(OC)c(=O)cc1[C@@H](NC(C)=O)CC2 [Colchicine]
inhibition at 110 µM [1]: 0%
inhibition at 110 µM [2]: 6%

COc1cc2c(cc1O)-c1cc3ccc(OC)c(OC)c3c[n+]1CC2 [Columbamine]
inhibition at 110 µM [3]: 1%
inhibition at 110 µM [4]: 0%

COc1cc(O)c2c(=O)c(O[C@@H]3O[C@H](CO)[C@@H](O)[C@H](O)[C@H]3O)c(-c3ccc(O[C@@H]4O[C@H](CO)[C@@H](O)[C@H](O)[C@H]4O)cc3)oc2c1 [Complanatuside]
inhibition at 110 µM [3]: 0%
inhibition at 110 µM [4]: 22%

C[C@@H]1O[C@@H](O[C@H]2CC[C@]3(C=O)[C@H]4CC[C@]5(C)[C@@H](C6=CC(=O)OC6)CC[C@]5(O)[C@@H]4CC[C@]3(O)C2)[C@H](O)[C@H](O)[C@H]1O [Convallatoxin]
inhibition at 110 µM [3]: 2%
inhibition at 110 µM [4]: 3%

CC[C@H]1C[C@@H]2CN3CCc4c([nH]c5ccccc45)[C@](C(=O)OC)(C2)[C@H]13 [Coronaridine]
inhibition at 110 µM [3]: 0%
inhibition at 110 µM [4]: 5%

C[C@H]1[C@H](C)CC[C@]2(C(=O)O)CC[C@]3(C)C(=CC[C@@H]4[C@@]5(C)C[C@@H](O)[C@H](O)C(C)(C)[C@@H]5CC[C@]43C)[C@H]12 [Corosolic acid]
inhibition at 110 µM [3]: 23%
inhibition at 110 µM [4]: 34%

C=C[C@H]1CN2CC[C@]3(C(=O)Nc4ccccc43)[C@@H]2C[C@@H]1/C(=C\OC)C(=O)OC [Corynoxeine]
inhibition at 110 µM [3]: 0%
inhibition at 110 µM [4]: 2%
